Source: US12692274B2, “Tetrahydroisoquinoline derivatives for the treatment of red blood disorders and inflammatory diseases” (Sanofi, priority 2020, dated 2026)
Several values for one entry are separate records, joined by “and”; a condition that tells them apart may be missing. Equal values may be shown once.

The molecules below were run against HIS-Keap1 full length / Biotin-Nrf2 (16-mer) (Homo sapiens, UniProt Q14145) (assay: biochemical).
HIS-Keap1 full length / Biotin-Nrf2 (16-mer), sequence (Q14145 whole entry): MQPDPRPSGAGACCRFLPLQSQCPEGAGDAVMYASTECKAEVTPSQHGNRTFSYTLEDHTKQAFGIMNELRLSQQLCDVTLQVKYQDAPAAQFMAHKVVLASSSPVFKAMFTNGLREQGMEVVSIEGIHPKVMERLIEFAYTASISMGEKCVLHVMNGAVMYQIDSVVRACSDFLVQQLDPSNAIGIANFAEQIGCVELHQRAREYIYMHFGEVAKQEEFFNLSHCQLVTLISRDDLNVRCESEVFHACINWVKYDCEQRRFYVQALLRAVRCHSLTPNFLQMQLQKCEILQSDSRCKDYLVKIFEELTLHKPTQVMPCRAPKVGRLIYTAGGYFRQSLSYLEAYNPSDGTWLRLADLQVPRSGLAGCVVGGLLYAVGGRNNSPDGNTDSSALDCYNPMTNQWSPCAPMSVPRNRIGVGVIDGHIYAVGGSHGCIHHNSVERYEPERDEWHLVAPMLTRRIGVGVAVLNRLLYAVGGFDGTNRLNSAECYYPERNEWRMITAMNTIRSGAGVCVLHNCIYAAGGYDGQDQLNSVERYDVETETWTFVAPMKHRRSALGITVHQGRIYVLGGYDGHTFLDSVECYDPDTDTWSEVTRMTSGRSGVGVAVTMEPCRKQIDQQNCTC
`O=C(O)CC1c2ccc3c(c2)CN(CC3)C(=O)c2cccc(c2)OC/C=C/CCn2nc3ccc1cc3n2` (stereo not drawn) [Compound 437] was tested, and the IC50 was 219 nM and 234 nM. In the case of `Cc1c2ccc3c1nnn3CCCCCCc1ccc3c(c1)cc(n3CCC(F)(F)F)C(=O)N1CCc3ccc(cc3C1)[C@@H]2CC(=O)O` [Compound 31], the IC50 is reported as 2.1 nM and 1.2 nM. `Cc1c2ccc3c1nnn3C/C=C/CCc1ccc3c(c1)cc(n3C)C(=O)N1CCc3ccc(cc3C1)[C@H]2[C@H](C)C(=O)O` [Compound 360] gave an IC50 of 0.9 nM. For `Cc1c2ccc3c1nnn3CCCCCCc1ccc3c(c1)cc(n3C)C(=O)N1CCc3ccc(cc3C1)[C@H]2[C@@H](C)C(=O)O` [Compound 29], the IC50 was 192 nM and 103 nM. In the case of `O=C(O)C[C@H]1c2ccc3c(c2)CN(CC3)C(=O)c2cccc(c2)OCCCCCn2nnc3cc1ccc32` [Compound 434], the IC50 is reported as 17.8 nM and 55.4 nM. In the case of `Cc1c2ccc3c1nnn3CCOCCOc1ccc(cc1)C(=O)N1CCc3ccc(cc3C1)C2CC(=O)O` (stereo not drawn) [Compound 398], the IC50 is reported as 5.2 nM and 17.3 nM. For `O=C(O)CC1c2ccc3c(c2)CN(CC3)C(=O)c2cccc(c2)OCCCCCn2nnc3cc1ccc32` (stereo not drawn) [Compound 440], the IC50 was 64.9 nM and 70.3 nM and 114 nM and 113 nM. For `O=C(O)C[C@@H]1c2ccc3c(c2)CN(CC3)Cc2ccc(cc2)OCCCCCCn2nnc3cc1ccc32` [Compound 405], the IC50 was 2150 nM and 2050 nM. With `Cc1ccc2cc1OCCCCCn1nnc3cc(ccc31)C(CC(=O)O)c1ccc3c(c1)CN(CC3)C2=O` (stereo not drawn) [Compound 430] the IC50 was 67.5 nM and 56.1 nM. With `O=C(O)CC1c2ccc(nc2)OCCCCCOc2cccc(c2)C(=O)N2CCc3ccc1cc3C2` (stereo not drawn) [Compound 344] the IC50 was 4410 nM and 4850 nM. For `O=C(O)CC1c2ccc3c(c2)CN(CC3)C(=O)c2ccc(cc2)OCCOCCn2nnc3cc1ccc32` (stereo not drawn) [Compound 412], the IC50 was 28.7 nM and 47.9 nM. With `Cc1c2ccc3c1nnn3CCCCCCc1ccc(c3c1ccn3C)C(=O)N1CCc3ccc(cc3C1)[C@@H]2CC(=O)O` [Compound 27] the IC50 was 0.4 nM and 0.3 nM. For `Cc1cc2ccc1C(=O)N1CCc3ccc(cc3C1)C(CC(=O)O)c1ccc3c(nnn3CCCCC2)c1F` (stereo not drawn) [Compound 147], the IC50 was 0.4 nM and 0.3 nM. `O=C(O)CC1c2ccc3c(c2)CN(CC3)C(=O)c2cccc(c2)OCCCCc2nnc3cc1ccn23` (stereo not drawn) [Compound 415] was tested, and the IC50 was 13200 nM and 8750 nM. In the case of `Cc1c2cccc1C(=O)N1CCc3ccc(cc3C1)C(CC(=O)O)c1ccc3c(c1)nnn3CCCCO2` (stereo not drawn) [Compound 417], the IC50 is reported as 42.7 nM and 35.2 nM. For `Cc1c2ccc3c1nnn3CCCCCCc1ccc(c3ccn(C)c13)C(=O)N1CCc3ccc(cc3C1)[C@@H]2CC(=O)O` [Compound 32], the IC50 was 0.5 nM and 0.6 nM. For `O=C(O)CC1c2ccc3c(c2)CN(CC3)C(=O)c2cccc(c2)OCCCCn2nnc3ccc1cc32` (stereo not drawn) [Compound 435], the IC50 was greater than 30000 nM. For `Cc1nc2ncc1C(CC(=O)O)c1ccc3c(c1)CN(CC3)C(=O)c1c(F)cc(cc1F)OCCCCO2` (stereo not drawn) [Compound 197], the IC50 was 164 nM and 148 nM. In the case of `Cc1ccc2cc1OCCCCn1nnc3cc(ccc31)C(CC(=O)O)c1ccc3c(c1)CN(CC3)C2=O` (stereo not drawn) [Compound 428], the IC50 is reported as 1090 nM and 962 nM. In the case of `Cc1c2ccc3c1nnn3CCCCCCOc1cnc(nc1)C(=O)N1CCc3ccc(cc3C1)C2CC(=O)O` (stereo not drawn) [Compound 198], the IC50 is reported as 0.5 nM and 1.2 nM and 1 nM. `O=C(O)CC1c2ccc3c(c2)CN(CC3)C(=O)c2cccc(c2)OCCCCCc2nnc3cc1ccn23` (stereo not drawn) [Compound 416] was tested, and the IC50 was 2420 nM and 348 nM. In the case of `Cc1c2ccc3c1nnn3CCCCCCc1ccc3c(c1)cc(n3C)C(=O)N1CCc3ccc(cc3C1)[C@H]2[C@H](C)C(=O)O` [Compound 30], the IC50 is reported as 103 nM and 159 nM. In the case of `Cc1cc2ccc1C(=O)N1CCc3ccc(cc3C1)[C@@H](C(C)(C)C(=O)O)c1ccc3c(c1)nnn3CCCCCCO2` [Compound 237], the IC50 is reported as 22.9 nM and 36.1 nM and 70.2 nM and 28.2 nM and 29.9 nM. For `Cc1c2ccc3c1nnn3CCOCCOc1cccc(c1)C(=O)N1CCc3ccc(cc3C1)C2CC(=O)O` (stereo not drawn) [Compound 414], the IC50 was 106 nM and 313 nM. For `Cc1ccc2cc1C(=O)N1CCc3ccc(cc3C1)C(CC(=O)O)c1ccc3c(c1)nnn3C/C=C/CO2` (stereo not drawn) [Compound 432], the IC50 was 93.1 nM and 93.3 nM. With `CC(C)(C(=O)O)C1c2ccc3c(c2)CN(CC3)C(=O)c2ccc(cc2F)CCCCCn2nnc3cc1ccc32` (stereo not drawn) [Compound 271] the IC50 was 1.9 nM (2×) and 1.7 nM. `O=C(O)CC1c2ccc3c(c2)CN(CC3)C(=O)c2ccc(cc2)OC/C=C/CCn2nnc3cc1ccc32` (stereo not drawn) [Compound 424] was tested, and the IC50 was 4.8 nM and 4.7 nM and 2.2 nM and 0.5 nM.
